Results taken from PubChem BioAssay AID2743 (NMMLSC, 2010).
Activity calls are given as the source filed them.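 How the source made its calls: active means fitted half-maximal concentration for change in GFP expression of 33 µM or less; inactive means the rest.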

Test: concentration-dependent AGP1-GFP change, TOR pathway – cell-based, flow cytometry, S. cerevisiae, MLPCN hits, dose response (AID 2743)
Conditions: S. cerevisiae AGP1-GFP strain, flow cytometry GFP, 3 h; at 33 µM (top of the series)

SMILES	GFP fluorescence (kMESF)
O=C1c2ccccc2C(=O)C2OC12 (configuration not stated)	33.7 kMESF (inactive)
CC1=NNC(=O)/C1=C\c1cn(-c2ccccc2)nc1-c1cccs1	37.3 kMESF (inactive)
CCC(=O)Nc1ccc(NC(=O)c2cc3ccccc3o2)cc1	43.4 kMESF (inactive)
C#CCOCCOCCOCCNc1nc(N2CCN(C(=O)CCCCCCCCCCNC(=O)[C@H](CCCCN)n3cc(CCCC(=O)O)nn3)CC2)nc(N2CCN(C(=O)CCCCCCCCCCNC(=O)[C@H](CCCN=C(N)N)n3cc(C[C@@H](C)CC)nn3)CC2)n1	42.4 kMESF (inactive)
C=CCOc1ccccc1C(=O)/C=C1/C(=O)Nc2ccccc21	43.2 kMESF (inactive)
N#Cc1cc([N+](=O)[O-])c(-n2nnc3ccccc32)c([N+](=O)[O-])c1	41.5 kMESF (inactive)
CC(OC(=O)c1ccco1)C(=O)Nc1nc(-c2ccccc2)cs1 (configuration not stated)	40.9 kMESF (inactive)
COc1ccc([N+](=O)[O-])c(S(=O)(=O)c2ccc(Cl)cc2)n1	37.1 kMESF (inactive)
CC(=O)Oc1cccc(N2C(=O)c3cccc4c([N+](=O)[O-])ccc(c34)C2=O)c1	31.2 kMESF (inactive)
O=C(c1ccccc1)c1ccccc1N1C(=O)C=CC1=O	38 kMESF (inactive)
Cc1cccc(/C=C/C(=O)c2ccc([N+](=O)[O-])o2)c1	19.2 kMESF (inactive)
C#CCOCCOCCOCCNc1nc(N2CCN(C(=O)CCCCCCCCCCNC(=O)[C@H](CCCCN)n3cc(C)nn3)CC2)nc(N2CCN(C(=O)CCCCCCCCCCNC(=O)[C@H](CCCN=C(N)N)n3cc(C[C@@H](C)CC)nn3)CC2)n1	43.6 kMESF (inactive)
Cn1ncc(S(=O)(=O)Cc2ccccc2)c(Cl)c1=O	43.9 kMESF (inactive)
CCN1/C(=C/C(C)=C/c2sc3ccccc3[n+]2CC)Sc2ccccc21	47.5 kMESF (inactive)
C[C@@H]1C[C@@H]([C@H](O)CC2CC(=O)NC(=O)C2)C(=O)[C@@H](C)C1	26.8 kMESF (inactive)
Nc1c(C(=O)c2cccs2)sc2nsc(SCCN3CCCCC3)c12	35.6 kMESF (inactive)

SMILES	GFP fluorescence (kMESF)
Cc1cc2ccccn2c1C(=O)c1ccc([N+](=O)[O-])o1	26 kMESF (inactive)
O=[N+]([O-])c1ccc(N=Nc2c(Cl)cc(O)cc2Cl)cc1	41.8 kMESF (inactive)
CCCCCCCCCCCCCCCC[n+]1cccc2ccccc21	2.67 kMESF (inactive)
O=C(Nc1nnc(-c2ccc3c(c2)CCCC3)o1)c1ccc(Cl)cc1Cl	20.9 kMESF (inactive)
O=C(O)c1ccccc1SC1CC(=O)N(c2ccc3c(c2)OCO3)C1=O (configuration not stated)	47.9 kMESF (inactive)
O=C(/C=C/c1ccccn1)c1ccc(Br)cc1O	20.4 kMESF (inactive)
O=C(Nc1ccccc1)c1nnsc1S(=O)(=O)c1ccc(Cl)cc1	38.4 kMESF (inactive)
CCC(=O)Nc1ccc(NC(=O)c2cc3ccccc3o2)c(OC)c1	44.6 kMESF (inactive)
O=c1oc2cc(Oc3c([N+](=O)[O-])cc(C(F)(F)F)cc3[N+](=O)[O-])ccc2c2c1CCCC2	40 kMESF (inactive)
Cc1c(N2C(=O)/C(=C\c3ccccc3O)SC2=S)c(=O)n(-c2ccccc2)n1C	44.8 kMESF (inactive)
O=C(Nc1ccc(NC(=O)c2cc3ccccc3o2)cc1)c1ccc2c(c1)OCCO2	42.8 kMESF (inactive)
CC(Oc1ccc2ccccc2c1)C(=O)NNC(=S)NC(=O)c1ccco1 (configuration not stated)	32.1 kMESF (inactive)
CCC1(c2ccccc2)ON(c2c(Br)cccc2Br)C1=O (configuration not stated)	28.9 kMESF (inactive)
CCOc1ccc(C(C)=O)cc1N1C(=O)C2C3C=CC(O3)C2C1=O (configuration not stated)	40.5 kMESF (inactive)
CC[C@@]1(c2ccccc2OC)ON(c2ccccc2C(F)(F)F)C1=O	33.2 kMESF (inactive)
C=CCOc1cccc(C(=O)/C=C2/C(=O)Nc3ccccc32)c1	43.2 kMESF (inactive)
